Assay results taken from PMC2736375, “Solution Behavior and Activity of a Halophilic Esterase under High Salt Concentration” (PLoS ONE, 2009).

Target: T1, LipC (Haloarcula marismortui, UniProt Q5V5N6)
T1 construct: full-length, N- and C-terminal 6xHis tags, pET28a (NheI/HindIII), E. coli BL21(DE3); theoretical 34 kDa, ~50 kDa on SDS-PAGE; no signal peptide; catalytic triad Ser128, Asp224, His254; active as free monomers, mixed aggregates
T1 sequence (Q5V5N6 1-327): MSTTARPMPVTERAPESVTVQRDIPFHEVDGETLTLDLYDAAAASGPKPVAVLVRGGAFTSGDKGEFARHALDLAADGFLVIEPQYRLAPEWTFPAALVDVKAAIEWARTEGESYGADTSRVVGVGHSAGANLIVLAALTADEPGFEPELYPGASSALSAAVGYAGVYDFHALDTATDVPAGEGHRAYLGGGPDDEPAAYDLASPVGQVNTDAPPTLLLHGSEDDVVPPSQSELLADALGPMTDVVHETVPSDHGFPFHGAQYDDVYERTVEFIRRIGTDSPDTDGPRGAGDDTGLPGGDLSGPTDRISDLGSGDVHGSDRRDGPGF
Experiment: p-nitrophenol release at […] nm
Assay type: biochemical
Settings: 0.5 mM substrate, 50 mM Tris-HCl pH 8.5, 45 °C, 3.4 M NaCl

SMILES	p-nitrophenol release at 405 nm
CC(=O)Oc1ccc([N+](=O)[O-])cc1 [p-NP-C2, p-nitrophenyl acetate]	The highest specific activity of LipC was found towards the short chain p-nitrophenyl esters
CCC(=O)Oc1ccc([N+](=O)[O-])cc1 [p-NP-C3]	short chain p-nitrophenyl esters of p-NP-C2 and p-NP-C3
